This passage reports IC50 results from BindingDB's records for patent US20240336642 (The General Hospital, 2024).

The structures appear in SMILES notation. Some results are limits rather than exact numbers.

In general, IC50 refers to the midpoint of a concentration-inhibition curve. The low end stands for greater potency, the high end for weaker potency.

In the assay the target is T1, Polyunsaturated fatty acid lipoxygenase ALOX12/ALOX15 (Homo sapiens, UniProt P16050+P18054).
T1 sequence (P16050 whole entry): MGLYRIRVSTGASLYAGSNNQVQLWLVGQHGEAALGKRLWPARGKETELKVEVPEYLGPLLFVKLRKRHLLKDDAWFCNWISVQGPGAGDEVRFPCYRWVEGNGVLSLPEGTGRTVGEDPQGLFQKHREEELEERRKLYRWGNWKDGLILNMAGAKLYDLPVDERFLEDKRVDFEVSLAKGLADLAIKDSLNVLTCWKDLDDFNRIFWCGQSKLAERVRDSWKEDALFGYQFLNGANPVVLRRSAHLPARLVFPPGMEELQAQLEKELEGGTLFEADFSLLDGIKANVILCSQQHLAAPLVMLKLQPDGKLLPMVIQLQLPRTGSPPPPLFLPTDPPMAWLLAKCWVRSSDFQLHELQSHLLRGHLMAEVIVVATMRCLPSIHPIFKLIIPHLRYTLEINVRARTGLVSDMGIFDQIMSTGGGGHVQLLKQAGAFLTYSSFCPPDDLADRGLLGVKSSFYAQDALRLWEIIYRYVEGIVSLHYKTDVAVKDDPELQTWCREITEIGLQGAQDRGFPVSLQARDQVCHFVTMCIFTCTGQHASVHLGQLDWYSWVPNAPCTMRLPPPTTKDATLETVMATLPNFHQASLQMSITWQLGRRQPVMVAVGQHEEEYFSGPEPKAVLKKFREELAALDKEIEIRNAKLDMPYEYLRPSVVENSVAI
T1 sequence (P18054 whole entry): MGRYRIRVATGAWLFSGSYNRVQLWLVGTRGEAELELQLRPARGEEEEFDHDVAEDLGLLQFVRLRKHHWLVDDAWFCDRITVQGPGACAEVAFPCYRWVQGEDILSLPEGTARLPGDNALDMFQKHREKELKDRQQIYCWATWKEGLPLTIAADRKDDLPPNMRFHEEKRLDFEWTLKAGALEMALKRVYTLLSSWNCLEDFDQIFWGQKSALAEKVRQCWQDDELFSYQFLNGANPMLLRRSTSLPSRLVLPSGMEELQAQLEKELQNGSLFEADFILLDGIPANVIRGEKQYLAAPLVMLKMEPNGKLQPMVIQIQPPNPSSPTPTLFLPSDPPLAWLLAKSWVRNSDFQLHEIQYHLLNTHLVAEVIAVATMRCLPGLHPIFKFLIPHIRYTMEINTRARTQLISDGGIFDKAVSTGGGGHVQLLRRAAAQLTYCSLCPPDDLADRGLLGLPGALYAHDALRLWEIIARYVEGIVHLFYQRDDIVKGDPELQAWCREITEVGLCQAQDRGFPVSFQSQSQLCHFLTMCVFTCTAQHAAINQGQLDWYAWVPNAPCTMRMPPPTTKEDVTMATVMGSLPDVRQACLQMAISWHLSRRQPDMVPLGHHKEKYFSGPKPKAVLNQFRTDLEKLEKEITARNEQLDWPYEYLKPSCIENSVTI
Kind of assay: Biological Activity of Exemplified Compounds as Inhibitors of 12/15-LOX.

With `CNc1oc(-c2cc(Cl)cc(Cl)c2OC(F)F)nc1C#N` [US20240336642, Compound 4], it took 97 nM to reach half-maximal inhibition (IC50).
As for `CNc1oc(-c2cc(Cl)cc(OC)c2Cl)nc1C#N` [US20240336642, Compound 9], the IC50 stood at 380 nM.
In turn, `N#Cc1nc(-c2cc(Cl)cc(Cl)c2F)oc1NCCCCCO` [US20240336642, Compound 25] yielded an IC50 above 20000 nM.
